For experiment [1], the system named is fruit flies. Kind of experiment: Comparison of erythritol with other human-safe sweet alcohols, fly longevity. It counts as in vivo, Drosophila melanogaster. To be noted: 17 days; for longevity, erythritol treatment versus the other treatments: FIG. 6. The procedure: An experiment was conducted to compare the effectiveness of erythritol with other human-safe sweet alcohols: D-mannitol, maltitol, sucrose, and xylitol. The concentration of all sweet alcohols were 1M.
Flies were raised for 17 days on standard fly food that contained 1 M concentrations of each sweetener treatment. Death of flies was recorded daily as before; each treatment was replicated on three vials of 10 flies each for 30 subjects/treatment. Differences in longevity were analyzed using the Kaplan-Meier survival analysis log rank test, making all pairwise comparisons among treatments.

A further experiment relates to R. flavipes workers. It is filed as in vivo, Reticulitermes flavipes. The procedure:
Termites used in the survival and choice experiments were collected from three field colonies in Scotland Run Park (39.66° N, 75.05° W) in Clayton, N.J. between April and May 2019. After collection, colonies were maintained in plastic containers with soil and wood from the collection site as a substrate in laboratory conditions (20.8±0.9° C., 49±7% RH). Termites used in the consumption experiment were collected from a single field colony at Cobb's Creek Park (39.94° N, 75.24° W) in Philadelphia, Pa. during September of 2018. Workers were removed from the log and housed within 24 h of collection in 9 cm diameter petri dishes containing damp paper towel as a food source. Dishes were placed in an incubator at 26° C. (relative humidity varied between 40 and 60% across trials, but was consistent among all treatments within each trial). Each petri dish contained 10 workers. Termites used in all experiments measured 3-4 mm in length.
For the survival experiment, unbleached, brown paper towels (12 cm×24 cm, cat no. 01801, Kimberly-Clark Corporation, Neenah, Wis.), were completely submerged for 15 s in solution of distilled water, erythritol (100% purity, NOW foods, Bloomingdale, Ill.) of the below-specified concentrations, and 0.05% Brilliant Blue R-250 dye (cat. no 27816, Sigma-Aldrich, St. Louis, Mo.). The erythritol concentrations used were: 0 M (control), 0.25 M, 0.5 M, 0.75 M, 1.0 M, and 1.25 M. The treated paper towels were removed from solution and allowed to dry horizontally on racks before being cut into squares with an area of 144 cm^2. Papers were thereafter stored dry at room temperature in sealed containers.
Prior to the beginning of the experiment, termites were allowed to acclimate for 3 d to the petri dishes, in order to control for any death due to injury incurred during movement to the petri dishes; this was called the pretrial period. At the beginning of the pretrial period, termites used in the survival experiment were transferred from sections of natural nest kept in laboratory rearing boxes to 9 cm diameter plastic petri dishes lined with brown, unbleached paper towel (12 cm×24 cm) not treated with erythritol. The paper towel was rehydrated with 1 ml of distilled water. Each dish contained 10 workers. After the third (final) day of the pretrial period, dishes were checked for dead termites, assumed to be dead due to injury, and dead termites were replaced with live individuals from a petri dish of extra termites kept in similar conditions.
Following the pretrial period, the experiment was set up: pretrial paper towels were removed and replaced with treated paper towels of the correct erythritol treatment concentration; these were rehydrated with 750 μL of distilled water. Six treatment groups (0 M, 0.25 M, 0.5 M, 0.75 M, 1.0 M, 1.25 M erythritol) were used per colony (n=3 colonies), with three dishes per treatment, each containing 10 termite workers (n=30 workers/treatment/colony, n=540 total workers). Termite mortality was recorded every 24 h for 8 d.
Analyses were performed using SPSS v. 24 (IBM corp. 2016) and. Sigmaplot v.12.5 (Systat Software 2013) software. Differences in survival distributions across concentrations for all colonies, within the colonies, and across colonies were tested using pairwise log-rank Mantel Cox tests in SPSS, with subjects living to the end of the trial or lost to reasons other than death (e.g., escaped or injured) included in the analysis as right-censored values. Mean percent mortality was calculated for each concentration across colonies at 72 and 96 h and a three parameter, best-fit sigmoid curve was fitted to the data in Sigmaplot to assess LC at these time points.

Experiment [2] has as its system Drosophila melanogaster. The experiment in a line: Two-way food choice experiments, fly longevity. It is filed as in vivo. To be noted: FIG. 5. The method, then: Foods containing 2 M erythritol, 1M erythritol and 1M sucrose were prepared for paired presentations in open choice tests. In each treatment one food type contained 0.05% brilliant blue FCF (Fisher 50-727-25). The blue dye allowed visual confirmation of feeding on the dyed food in the pair. The flies were presented with access to two food choices by using a modified cotton stopper with approximately a 1.5 cm diameter hole to connect each pair of food tubes.
The final choice treatment was between blue 2M erythritol food and non-blue 1M sucrose food (this treatment provides a comparison with the 1M erythritol/1M erythritol treatment as a test of dilution of toxicity by alternative food sources; blue guts would confirm erythritol was being consumed in the presence of sucrose). The number of flies with visible blue gut contents and mortality daily were recorded for 30 days.
(§1) Analyses were conducted with SPSS software v. 20 (IBM corporation 2011). Fly longevity data were analyzed using survival analysis with right-hand censoring of subjects that lived to the end of the study or were lost for reasons other than death. Test were run for differences in survival distributions [Pr(flies alive) versus insect age] using the log-rank (Mantel-Cox) test to make all pairwise comparisons among treatments within each experiment.

The test system of experiment [3] is Drosophila melanogaster. Kind of experiment: Erythritol concentration trials, fly longevity. It counts as in vivo. The procedure:
as §1, with “Standard fly foods were prepared as previously described, and then were treated with 2M, 1M, 0.5M and 0.1M concentrations of erythritol, using 0.5M sucrose as control. 0 to 24 hour-old Drosophila were placed on these foods and mortality was recorded daily for 35 days as above. Analyses” for “Analyses”

Experiment [4] deals with Drosophila melanogaster. The experiment in a line: Longevity of adult flies raised on food containing sweeteners. It is filed as in vivo. To be noted: repeat study, blue-dyed food with 0.0238 g/ml sweetener, FIG. 3. The procedure:
All animals were cultured at 25° C., kept at 50-60% humidity, and were raised under a standard 12:12 light dark cycle. For each experimental treatment, n=30 flies were tested in groups of 10 per tube, and three tubes per treatment. Tubes were kept on their side to minimize subject becoming mired in the food. Foods were replaced twice a week. The total number of fruit flies used for these experiments was 780, with 300 used for two initial trials testing mortality among store-brand sweeteners, 210 used for repeating this with blue dye and pure erythritol, 120 for choice trials and 150 for concentration trials.
Standard Drosophila food for larval culturing consisted of water, cornmeal, yeast, molasses, and agar, as previously described (Chakraborty, et al., 2011, PLoS ONE 6: e20799). […] The addition of cornmeal and yeast assured the flies still received sufficient carbohydrates and protein in addition to any effects of the treatment additives.
Drosophila food was combined with an equal weight/volume (0.0238 g/ml) of one non-nutritive sweetener (TRUVIA, EQUAL, SPLENDA, SWEET'NLOW, or PUREVIA) or a control nutritive sweetener (controls: sucrose or corn syrup). Wild type (Canton S) larvae were initially raised on the standard food, and 0-12 hour old adult flies were transferred to foods containing one non-nutritive sweetener or a control treatment. […] The number of dead flies were scored daily.

Experiment [5] concerns fruit flies. To be noted: 0.5 M erythritol food, previous work; cited from earlier work.
The mark [6] stands for this setting: 1 M sweetener in standard fly food.

“Also recorded” adds a separate entry of the source. Read-outs that look alike come from different tables or passages of the source.

Take `OC[C@@H](O)[C@@H](O)[C@H](O)[C@H](O)CO` [D-mannitol]: in the experiment with fruit flies [1] (setting [6]), the “longevity compared to sucrose (sugar) control” value (“longevity compared to sucrose” below) was “did not differ from sugar control; also recorded: slightly but significantly reduced longevity; also recorded: almost insignificant insecticidal effect” and the “longevity, erythritol treatment versus the other treatments” value is recorded as “significantly greater longevity than erythritol-fed flies”.

`OC[C@@H](O)[C@@H](O[C@H]1O[C@H](CO)[C@@H](O)[C@H](O)[C@H]1O)[C@H](O)[C@@H](O)CO` [maltitol]: in the experiment on fruit flies [1] (setting [6]), the “longevity compared to sucrose” value is on record as “did not differ from sugar control; also recorded: did not differ from the control; also recorded: not effective at reducing fly longevity” and the “longevity, erythritol treatment versus the other treatments” value was “significantly greater longevity than erythritol-fed flies”.

Regarding `OC[C@@H](O)[C@@H](O)CO` [erythritol, (2R,3S)-butane-1,2,3,4-tetraol], the “reduction in mean longevity” value was 1.74 days in the experiment on R. flavipes workers (0.25 M to 0.5 M); 0.23 days in the experiment on R. flavipes workers (0.5-0.75 M); 0.26 days in the experiment with R. flavipes workers (0.75-1.0 M); 0.14 days in the experiment with R. flavipes workers (1.0-1.25 M); 3.77 days in the experiment with R. flavipes workers (concentration increased from 0 M to 0.25 M, FIG. 10). Further, in the experiment with R. flavipes workers (R. flavipes workers, 8 d), the “concentration at which significant effects on longevity start” value turned out to be 0.25 M. Moreover, the “time of exposure to reach 50% mortality” value is no more than 2 days in the experiment with R. flavipes workers (termites, 0.5 M erythritol filter papers) and 20 days in the experiment on fruit flies [5]. Moreover, the “longevity relative to sucrose:sucrose choice” value is listed as “significant decrease in longevity; also recorded: significantly decreased longevity” in the experiment on Drosophila melanogaster [2] (choice between 1M sucrose and 1M erythritol); “significant decrease in longevity; also recorded: significantly reduced” in the experiment with Drosophila melanogaster [2] (choice between 1M sucrose and 2M erythritol). For the same compound, in the experiment with Drosophila melanogaster [3] (0.1M erythritol in food, observations terminated at 35 days), the “longevity compared to control food” value was “no significant difference in longevity”. Moreover, the “longevity with increasing erythritol concentration” value with Drosophila melanogaster [3] (0.1M, 0.5M, 1.0M and 2.0M in food, 35 days, FIG. 4) is reported as “significant decrease in longevity; also recorded: dose-dependent reduction in longevity”. In addition, the “longevity compared to control food containing 0.5M sucrose” value in the experiment with Drosophila melanogaster [3] (0.5M erythritol in food) and with Drosophila melanogaster [3] (1M erythritol in food) was “significant reductions in longevity” in each case. Moreover, in the experiment on Drosophila melanogaster [3] (2M erythritol in food), the “longevity compared to all other treatments” value is “significant and severe effect on longevity”. The “longevity compared to PUREVIA, EQUAL, sucrose and corn syrup” value with Drosophila melanogaster [4] is listed as “significant decrease in longevity”. In addition, in the experiment with fruit flies [1] (1 M in standard fly food), the “toxicity to fruit flies upon ingestion” value is recorded as “toxic to fruit flies upon ingestion”. The compound further gave a mean longevity in the experiment on fruit flies [1] (setting [6]) of 4.7 ± 0.15 days. Further, in the experiment with fruit flies [1] (setting [6]), the “longevity, erythritol treatment versus the other treatments” value is given as “significantly lower; also recorded: significantly shorter longevity”.

Take `OC[C@H]1O[C@@](CO)(O[C@H]2O[C@H](CO)[C@@H](O)[C@H](O)[C@H]2O)[C@@H](O)[C@@H]1O` [sucrose]: the “longevity, erythritol treatment versus the other treatments” value in the experiment on fruit flies [1] (setting [6]) is on record as “significantly greater longevity than erythritol-fed flies”.

Turning to `OC[C@@H](O)[C@H](O)[C@@H](O)CO` [xylitol], in the experiment with fruit flies [1] (setting [6]), the “longevity compared to sucrose” value was “did not differ from sugar control; also recorded: did not differ from the control; also recorded: not effective at reducing fly longevity” and the “longevity, erythritol treatment versus the other treatments” value was “significantly greater longevity than erythritol-fed flies”.

Source of the values: patent publication US20230270104A1, “USE OF ERYTHRITOL COMPOSITIONS AS MAMMAL-SAFE INSECTICIDES” (Drexel University, priority 2020, published 2023).
